Assay results as given in publication PMC10982501, “Synthesis and biological evaluation of novel benzothiazole derivatives as potential anticancer and antiinflammatory agents” (Frontiers in Chemistry, 2024).

How the values were obtained:
[1] = test system: A431 cells; assay: MTT cell proliferation assay, A431; type: cell-based, human; settings: Homo sapiens, A-431, 48 h; for IC50: read-out: IC50 (mean ± SD) A431; for inhibition at 10 µM: read-out: A431 cells inhibition rate
Experimental: (§1) Beas-2b, A431, A549 and H1299 cells were cultured in 96-well plates (5 × 10^3 cells/well) for 16 h, respectively. Subsequently, positive compound 4i and 25 newly synthesized compounds were added at a final concentration of 10 μM or gradient concentrations (0.01, 0.1, 0.5, 1, 5 and 10 μM), co-incubated with the cells for 48 h. MTT (M8180, Solarbio) solutions (5 mg/mL) were then added and incubated for 4 h in the dark. Then, formazan crystals were dissolved with DMSO (D8371, Solarbio), followed by shaking on a shaker (DRAGONLAB, China) for 10 min. Finally, absorbance at 490 nm wavelength for each well was measured with Microplate reader (Molecular Devices, United States) ([Tang et al., 2020]; [Lee et al., 2021]). The results are expressed as mean ± SD from three independent experiments. Cells inhibition rates or IC50 values were calculated using GraphPad Prism 9.5.0.

[2] = test system: H1299 cells; assay: MTT cell proliferation assay, H1299; type: cell-based, human; settings: Homo sapiens, NCI-H1299, 48 h; for IC50: read-out: IC50 (mean ± SD) H1299; for inhibition at 10 µM: read-out: H1299 cells inhibition rate
Experimental: as §1

[3] = test system: A549 cells; assay: Flow cytometry analysis of cell cycle, A549; type: cell-based, human; settings: A549, 24 h
Experimental: (§2) The A431 and A549 cells were cultured in 6-well plates (1×10^5 cells/mL) for 16 h. Subsequently, they were treated with different concentrations (1, 2 and 4 μM) of either B7 or 4i (4 μM) for 24 h. Cells were collected, mixed by adding 75% ethanol with shaking on a vortex shaker, and placed in the refrigerator at 4°C for overnight fixation. The cells were incubated with PI-Raze solution for 15 min at room temperature, protected from light, according to the instructions of BD Cycletest Plus DNA Reagent Kit (340242, BD), and detected by FACS Calibur flow cytometry ([Oh et al., 2023]), and subsequent data analysis was performed using FlowJo 10.6.2.

[4] = test system: A549 cells; assay: MTT cell proliferation assay, A549; type: cell-based, human; settings: Homo sapiens, A549, 48 h; for IC50: read-out: IC50 (mean ± SD) A549; for inhibition at 10 µM: read-out: A549 cells inhibition rate
Experimental: as §1

[5] = test system: A431 cells; assay: Flow cytometry analysis of cell cycle, A431; type: cell-based, human; settings: A431, 24 h
Experimental: as §2

[6] = test system: non-small cell lung cancer cell line HOP-92; parameters: method as in Noolvi et al., 2012; settings: ref Noolvi et al., 2012; cited from earlier work
[7] = test system: IL-6; assay: ELISA of IL-6 in LPS-stimulated RAW264.7 cells; type: cell-based, mouse; settings: 10 μM, RAW264.7, LPS, 24 h, vs blank control
Experimental: (§3) RAW264.7 cells were cultured in 6-well plates (2×10^5 cells/well) for 24 h and treated with 25 newly synthesized compounds (final concentration at 10 μM) for 30 min, respectively. Subsequently, the cells were stimulated with 1 μL of LPS (500 ng/mL) (L8880, Solarbio). After 24 h, the supernatant was collected and analyzed using an ELISA kit (EK206 and EK182, MULTISCIENCES) to quantify the levels of inflammatory cytokines IL-6 and TNF-α ([Li et al., 2021]).

[8] = Oil-water partition coefficient (log P) measurement; type: physicochemical; settings: n-octanol/water, room temperature
Experimental: The partition coefficient between n-octanol and water (log Po/w) is the classical descriptor for Lipophilicity ([Daina et al., 2017]). The test methodology followed previously published protocols ([Wang et al., 2021]). At room temperature, two large Erlenmeyer flasks were taken and filled with n-octanol and water, respectively. The flasks were placed in a constant temperature shaker at 150 rpm for 24 h to saturate the solvents. The mixtures were then transferred to separating funnels under normal pressure to obtain water-saturated n-octanol and n-octanol-saturated water for subsequent use. The target compound (2 mg) was accurately weighed and placed in a 2 mL brown volumetric flask. Anhydrous methanol was added to ultrasonically dissolve the compound, and the mixture was diluted to volume and thoroughly shaken to prepare a 1 mg/mL stock solution. The stock solution was further diluted to obtain 1, 1.5, 2, 2.5, 5 and 10 μg/mL reference solutions for construction of a standard curve using a UV-visible spectrophotometer. An excess amount of the analyte was dissolved in water-saturated n-octanol, and the mixture was shaken at 150 rpm for 24 h at constant temperature to obtain a saturated solution. The saturated solution was allowed to stand, centrifuged, and 1 mL of the supernatant was transferred to a 4 mL centrifuge tube. N-octanol saturated water (1 mL) was added, and the mixture was shaken at 150 rpm for 24 h at constant temperature. After standing for 8 h, the mixture was centrifuged. Appropriate amounts of the n-octanol phase before and after equilibration were diluted with methanol, and concentrations were determined from the standard curve to obtain C0 and C1. The concentration in the n-octanol saturated aqueous phase, Cw, was calculated as Cw = C0 - C1. Thus, log Po/w = […].

[9] = test system: TNF-α; assay: ELISA of TNF-α in LPS-stimulated RAW264.7 cells; type: cell-based, mouse; settings: 10 μM, RAW264.7, LPS, 24 h, vs blank control
Experimental: as §3

[10] = test system: Beas-2b cells; assay: MTT cell proliferation and toxicity assay, Beas-2b; type: cell-based, human; settings: Homo sapiens, BEAS-2B, 48 h, read-out: Beas-2b cells inhibition rate
Experimental: as §1

[11] = test system: A549 cells; assay: Wound healing analysis of cell migration, A549; type: cell-based, human; settings: A549, 4 μM, 48 h, compared to 4i
Experimental: (§4) The A431 and A549 cells were cultured in 6-well plates (5×10^5 cells/well). When the cell confluency reached approximately 90%, used a sterile 10 μL pipette tip to create three parallel scratches evenly. Subsequently, rinsed with PBS to remove floating cells, and then treated with B7 and 4i at final concentrations of 4 μM. Captured images using a microscope camera system (Nikon, JPN) at 0 and 48 h post-treatment ([Xu et al., 2023]).

[12] = test system: AKT; assay: Western blot, AKT phosphorylation; type: cell-based, human; settings: A431 and A549 cells, 1, 5 and 10 μM, 2 h
Experimental: (§5) The A431 and A549 cells were cultured in 6-well plates (2×10^5 cells/well) for 2 h and treated with different concentrations of B7(1, 5, and 10 μM) or 4i (10 μM). The corresponding cells were collected, washed with PBS (P1020, Solarbio), and lysed with RIPA buffer (R0010, Solarbio) to extract the total proteins. The extracted protein was loaded, subjected to SDS-PAGE electrophoresis (Bio-Rad) ([Xu et al., 2023]), and then the protein was transferred to a PDVF membrane (IPVH00010, Millipore) and incubated in the corresponding Primary Antibody AKT (9272, Cell Signaling Technology), phospho-AKT (4058, Cell Signaling Technology), ERK (A4782, ABclonal Technology), phospho-ERK (AP0974, ABclonal Technology) and GAPDH (AB0037, Abways Technology) overnight. Then, the Primary Antibody was recovered and enzyme-labeled secondary antibodies Goat Anti-Rabbit IgG HRP (H + L) (A0208, Beyotime Technology) were used. Finally, Imaging was performed on a gel Imaging System (Bio-Rad, United States) using the Ultra-sensitive ECL Chemiluminescence Assay Kit (P0018AS, Beyotime Technology).

[13] = test system: A549 cells; assay: Flow cytometry analysis of cell apoptosis, A549; type: cell-based, human; settings: A549, 1, 2 and 4 μM, 24 h
Experimental: (§6) The A431 and A549 cells were cultured in 6-well plates (1×10^5 cells/mL) for 16 h. Subsequently, cells were treated with different concentrations (1, 2 and 4 μM) of either B7 or 4i for 24 h. Then, the cells were collected, washed, and stained with the FITC Annexin V Apoptosis Detection Kit I (556547, BD) ([Jiang et al., 2017]). Sample testing was performed using a FACS Calibur Flow Cytometer (BD, United States), and subsequent data analysis was performed using FlowJo 10.6.2.

[14] = test system: ERK; assay: Western blot, ERK phosphorylation; type: cell-based, human; settings: A431 and A549 cells, 1, 5 and 10 μM, 2 h
Experimental: as §5

[15] = test system: A431 cells; assay: Wound healing analysis of cell migration, A431; type: cell-based, human; settings: A431, 4 μM, 48 h, compared to 4i
Experimental: as §4

[16] = test system: common anti-tumor receptor kinases; assay: Activity of common anti-tumor receptor kinases
[17] = test system: A431 cells; assay: Flow cytometry analysis of cell apoptosis, A431; type: cell-based, human; settings: A431, 1, 2 and 4 μM, 24 h
Experimental: as §6

[18] = test system: human cancer cell lines; parameters: method as in Mortimer et al., 2006; settings: particularly non-small cell lung, colon and breast cancer lines; ref Mortimer et al., 2006; cited from earlier work

Row | IC50 [1] [nM] | IC50 [2] [nM] | IC50 [4] [nM] | logP [8] | SMILES | cell cycle arrest, in words [3] | cell cycle arrest, in words [5] | effect on IL-6 expression [7] | inhibition at 10 µM [1] [%] | inhibition at 10 µM [2] [%] | inhibition at 10 µM [4] [%] | effect on TNF-α expression [9] | inhibition at 10 µM [10] [%] | also measured
1 | 1510 ± 200 | 1680 ± 120 | 960 ± 240 | 3.25 ± 0.24 | O=[N+]([O-])c1ccc(CNc2nc3ccc(Cl)cc3s2)cc1 [B7, 6-chloro-N-(4-nitrobenzyl)benzo[d]thiazol-2-amine] | G2 phase cell cycle arrest effect | G2 phase cell cycle arrest effect | significant inhibitory effects |  |  |  | significant inhibitory effects | 16.6 ± 1.36 | inhibitory effect on cell migration, in words [11]: stronger inhibitory effect; AKT protein phosphorylation, in words [12]: markedly inhibit; apoptosis rate, in words [13]: gradual increase in the apoptosis rate; ERK protein phosphorylation, in words [14]: markedly inhibit; migration inhibitory effect, in words [15]: slightly surpassed that of 4i; impact on common anti-tumor receptor kinases, in words [16]: minimal impact; apoptosis rate, in words [17]: gradual increase in the apoptosis rate
2 |  |  |  | 5.82 ± 0.22 | Clc1ccc2nc(N(Cc3ccccc3)Cc3ccccc3)sc2c1 [D2, N,N-dibenzyl-6-chlorobenzo[d]thiazol-2-amine] |  |  | significant inhibitory effects | 43.6 ± 1.39 | 46.9 ± 2.71 | 40.3 ± 1.06 | significant inhibitory effects | 24.3 ± 3.1 | 

Continued, compound first:

Row | SMILES | IC50 [1] [nM] | IC50 [2] [nM] | IC50 [4] [nM] | logP [8] | cell cycle arrest, in words [3] | cell cycle arrest, in words [5] | effect on IL-6 expression [7] | inhibition at 10 µM [1] [%] | inhibition at 10 µM [2] [%] | inhibition at 10 µM [4] [%] | effect on TNF-α expression [9] | inhibition at 10 µM [10] [%] | also measured
3 | Clc1cccc(Cl)c1Nc1nc2cccc(Cl)c2s1 [4i, 7-chloro-N-(2,6-dichlorophenyl) benzo[d] thiazole-2-amine, reference compound] | 2000 ± 410 | 2480 ± 530 | 1090 ± 320 |  | G2 phase cell cycle arrest effect | G2 phase cell cycle arrest effect |  |  |  |  |  |  | anticancer activity against HOP-92, in words [6]: promising anticancer activity
4 | CCOC(=O)COc1ccccc1-c1nc2ccccc2s1 [A1, Ethyl 2-(2-(benzo[d]thiazol-2-yl)phenoxy)acetate] |  |  |  | 2.35 ± 0.21 |  |  | significant inhibitory effects | 45.6 ± 1.21 | 49.5 ± 0.84 | 42.3 ± 1.15 | significant inhibitory effects | 10.2 ± 0.92 | 
5 | COc1ccc(-c2nc3cc(F)ccc3s2)cc1OC [PMX610, 2-(3,4-dimethoxyphenyl)-5-fluorobenzothiazole] |  |  |  |  |  |  |  |  |  |  |  |  | in vitro anti-tumor properties in human cancer cell lines, in words [18]: potent and selective in vitro anti-tumor properties
